According to PMC3250956, “Functional characterization and analgesic effects of mixed cannabinoid receptor/T-type channel ligands” (Molecular Pain, 2011):

Experiments:
[1] = biological target: T1, Cav3.2 (Homo sapiens, UniProt O95180); experiment: Whole-cell patch-clamp on Cav3.2: concentration-response and steady-state inactivation; format: cell-based; settings: 10 μM; for half-inactivation potential after treatment with drug: n = 4
T1 construct: expressed in transfected cells; host or cells: tsA-201 cells, transient calcium phosphate transfection
T1 sequence (O95180 whole entry): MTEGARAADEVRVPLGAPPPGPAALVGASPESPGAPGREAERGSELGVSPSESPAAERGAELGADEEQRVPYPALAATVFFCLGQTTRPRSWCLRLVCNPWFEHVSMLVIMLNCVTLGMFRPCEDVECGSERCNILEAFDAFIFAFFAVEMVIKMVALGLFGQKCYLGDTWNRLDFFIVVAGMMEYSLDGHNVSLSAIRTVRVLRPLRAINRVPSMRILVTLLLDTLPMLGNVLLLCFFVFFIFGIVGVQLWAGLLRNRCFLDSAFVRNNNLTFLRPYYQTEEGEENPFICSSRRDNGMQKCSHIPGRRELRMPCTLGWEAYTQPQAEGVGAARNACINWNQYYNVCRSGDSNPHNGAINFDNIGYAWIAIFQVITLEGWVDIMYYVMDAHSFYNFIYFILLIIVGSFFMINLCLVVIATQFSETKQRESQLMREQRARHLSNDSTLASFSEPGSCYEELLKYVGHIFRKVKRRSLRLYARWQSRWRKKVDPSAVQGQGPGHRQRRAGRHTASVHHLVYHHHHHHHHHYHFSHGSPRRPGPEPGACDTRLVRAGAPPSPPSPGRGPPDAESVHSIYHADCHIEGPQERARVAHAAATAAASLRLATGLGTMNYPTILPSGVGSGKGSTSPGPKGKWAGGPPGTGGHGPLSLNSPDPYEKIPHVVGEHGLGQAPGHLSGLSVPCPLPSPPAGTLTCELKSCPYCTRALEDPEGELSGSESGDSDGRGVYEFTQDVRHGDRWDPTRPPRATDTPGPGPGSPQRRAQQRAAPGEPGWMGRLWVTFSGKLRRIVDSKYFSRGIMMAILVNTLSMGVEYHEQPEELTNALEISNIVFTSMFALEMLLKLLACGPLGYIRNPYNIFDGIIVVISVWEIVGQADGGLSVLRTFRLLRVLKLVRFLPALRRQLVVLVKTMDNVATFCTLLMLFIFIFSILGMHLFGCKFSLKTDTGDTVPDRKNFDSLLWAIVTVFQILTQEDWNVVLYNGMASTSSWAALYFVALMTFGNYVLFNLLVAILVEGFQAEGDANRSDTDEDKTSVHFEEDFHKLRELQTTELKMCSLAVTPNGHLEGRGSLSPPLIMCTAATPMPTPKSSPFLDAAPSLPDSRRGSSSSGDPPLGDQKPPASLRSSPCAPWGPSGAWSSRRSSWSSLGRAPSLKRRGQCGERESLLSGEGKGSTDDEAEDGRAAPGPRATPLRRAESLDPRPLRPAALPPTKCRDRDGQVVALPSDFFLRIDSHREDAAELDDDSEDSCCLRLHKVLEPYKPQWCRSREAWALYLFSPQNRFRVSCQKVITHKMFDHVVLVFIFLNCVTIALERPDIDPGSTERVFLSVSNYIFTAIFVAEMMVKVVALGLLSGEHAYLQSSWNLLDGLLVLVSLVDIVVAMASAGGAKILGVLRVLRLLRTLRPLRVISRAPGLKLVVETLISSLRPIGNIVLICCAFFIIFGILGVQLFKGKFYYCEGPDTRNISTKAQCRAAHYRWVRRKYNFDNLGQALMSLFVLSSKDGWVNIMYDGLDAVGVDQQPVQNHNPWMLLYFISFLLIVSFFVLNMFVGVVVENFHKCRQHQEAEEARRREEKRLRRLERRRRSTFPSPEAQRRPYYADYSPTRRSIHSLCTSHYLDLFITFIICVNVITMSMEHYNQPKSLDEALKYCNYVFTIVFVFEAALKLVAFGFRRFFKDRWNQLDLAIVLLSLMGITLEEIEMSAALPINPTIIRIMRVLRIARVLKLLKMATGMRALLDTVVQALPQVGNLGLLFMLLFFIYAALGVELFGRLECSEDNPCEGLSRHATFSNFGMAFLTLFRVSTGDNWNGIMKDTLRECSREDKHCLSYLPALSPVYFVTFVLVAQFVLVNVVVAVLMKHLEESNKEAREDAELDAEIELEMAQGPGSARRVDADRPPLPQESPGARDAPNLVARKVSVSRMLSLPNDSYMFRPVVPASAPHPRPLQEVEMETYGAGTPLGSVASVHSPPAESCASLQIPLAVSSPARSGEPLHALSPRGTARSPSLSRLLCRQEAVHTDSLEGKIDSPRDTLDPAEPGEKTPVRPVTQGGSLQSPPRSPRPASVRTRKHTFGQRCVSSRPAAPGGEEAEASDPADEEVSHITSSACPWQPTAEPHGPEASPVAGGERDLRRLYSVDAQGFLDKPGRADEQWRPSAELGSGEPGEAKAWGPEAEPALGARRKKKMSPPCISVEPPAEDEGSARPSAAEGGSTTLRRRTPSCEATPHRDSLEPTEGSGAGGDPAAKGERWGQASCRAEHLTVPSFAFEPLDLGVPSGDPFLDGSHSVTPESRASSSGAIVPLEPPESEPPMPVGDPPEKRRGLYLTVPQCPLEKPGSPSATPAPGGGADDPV
Description: To further characterize compounds NMP-4, NMP-7 and NMP-144, we investigated the concentration dependence of their action on Cav3.2, the major T-type calcium channel subtype implicated in the afferent pain pathway (Figure 2B, C).
To determine whether these compounds also affected inactivated channels, we recorded steady-state inactivation curves prior and after application of NMP-4, NMP-7 or NMP-144.
Whole-cell currents were recorded from tsa-201 cells 2-4 days after transfection. The external recording solution contained (in mM): BaCl2 (20), MgCl2 (1), HEPES (10), TEA-Cl (40), CsCl (65), d-glucose (10) and pH 7.2 adjusted with TEA-OH. The internal pipette solution was composed of (in mM) Cs-methanesulfonate (108), MgCl2 (4), EGTA (9), HEPES (9) and pH 7.2 adjusted with CsOH. The internal solution was supplemented with 0.6 mM GTP (sodium salt) and 2 mM ATP (tris salt), which were added directly to the internal solution immediately prior to use. Pipettes with a resistance of 2~5 MΩ when filled with internal solution were used for recording. Currents were elicited from a holding potential of -100 mV and were measured by conventional whole-cell patch clamp using an Axopatch 200B amplifier in combination with Clampex 9.2 software (Axon Instruments, Foster City, CA). Data were filtered at 1 kHz (8-pole Bessel) and digitized at 10 kHz with a Digidata 1320 (Axon Instruments, Foster City, CA). Series resistance were compensated by 85% in all experiments. An online P/4 programme was used to subtract the leak currents. Drugs were dissolved in DMSO at the following stock concentrations: 20 mM for NMP-4 and NMP-7, and 10 mM for NMP-139, NMP-140, NMP-141 and NMP-144. Prior to the experiment, drugs were diluted into external recording solution with a final DMSO concentration no higher than 0.3%. DMSO was also included in the control solution. Drug delivery was controlled by a Valvelink8.2 fast perfusion system (Automate Scientific Inc., Berkeley, CA). The perfusion tip was positioned a few hundred microns from the cell and kept as constant as possible throughout the experiments. Electrophysiological data were analyzed using Clampfit 9.2 (Axon Instruments, Foster City, CA) and GraphPad Prism 5 software (GraphPad Software Inc., San Diego, CA). […] Steady-state inactivation curves were fitted using the Boltzmann equation: I = 1/(1 + e ^(V-Vh)/k), where Vh is the half inactivating potential and k is the slope factor.

[2] = system: formalin-induced pain; experiment: Formalin test (formalin-induced nociception); format: in vivo, mice; settings: for effect on second phase of formalin-induced nociception / effect on first phase of formalin-induced nociception: i.pl., co-injected with formalin; for effect on second phase of formalin-induced nociception: 0.03-3 μg/paw; for effect on first phase of formalin-induced nociception: NMP-4 and NMP-144 0.03-3 μg/paw, NMP-7 0.3-3 μg/i.pl.; for reduction of pain response time, first (neurogenic) phase / reduction of pain response time, second (inflammatory) phase: 10 min prior, NMP-4 1-10 μg/i.t., NMP-144 0.1-1 μg/i.t., NMP-7 3-30 μg/i.t., mice
Description: All experiments were conducted following the protocol approved by the Institutional Animal Care and Use Committee (protocol #M09130) and all efforts were made to minimize animal suffering. Male mice of C57BL/6J strain weighing 25~30 g, 10 weeks old were used. Animals were housed at a maximum number of five per cage (30 × 20 × 15 cm) with food and water ad libitum. They were kept in 12 h light/dark cycles (lights on at 7:00 a.m.) at a temperature of 23 ± 1°C. All manipulations were carried out between 11:00 am and 3:00 pm. […] Control animals received the same vehicle used to dilute the compounds. When drugs were delivered by intraperitoneal (i.p.) route, a constant volume of 10 ml/kg body weight was injected. When drugs were administered by intrathecal (i.t.) or intraplantar (i.pl.) routes, respectively volumes of 5 μl or 20 μl were injected. Appropriate vehicle-treated groups were also assessed simultaneously.
The formalin test is a widely used model that allows us to evaluate two different types of pain: neurogenic pain (phase 1) is caused by direct activation of nociceptive nerve terminals, while inflammatory pain (phase 2) is mediated by a combination of peripheral input and spinal cord sensitization. Animals received 20 μl of a formalin solution (1.25%) made up in PBS injected intraplantarly (i.pl.) in the ventral surface of the right hindpaw. Following i.pl. injection of formalin, the animals were immediately placed individually into observation chambers and the time spent licking or biting the injected paw was be recorded and considered as nociceptive response. We observed animals individually from 0-5 min (neurogenic phase) and 15-30 min (inflammatory phase).
Intrathecal injections were given to fully conscious mice using the method previously described by Hylden and Wilcox. Briefly, the animals were manually restrained, and a 30-gauge needle connected by a polyethylene tube to a 25 μl Hamilton syringe (Hamilton, Birmingham, UK) was inserted through the skin and between the vertebrae into the […] space of the L5-L6 spinal segments. Intrathecal injections were given over a period of 5 seconds.

| SMILES | hyperpolarizing shift in the half inactivation potential of Cav3.2 channels [1] | half-inactivation potential after treatment with drug [1] [mV] | effect of i.pl. pre-treatment on the antinociceptive effect of NMP-7 (1 μg/i.pl.), first phase ([2]; NMP-4 0.03 μg/i.pl. pre-treatment) | effect on second phase of formalin-induced nociception [2] | effect on first phase of formalin-induced nociception [2] | reduction of pain response time, first (neurogenic) phase ([2]; i.t.) [%] | reduction of pain response time, second (inflammatory) phase ([2]; i.t.) [%] | lowest dose producing analgesia ([2]; i.t., formalin response) [μg/i.t.] |
| --- | --- | --- | --- | --- | --- | --- | --- | --- |
| CCCCCn1c2ccc(C(=O)N3CCCCC3)cc2c2ccc(OC)cc21 [NMP-4] | 20 mV | -72.9 ± 4.7 | significantly antagonized | no effect was observed | no effect was observed | 44 ± 4 | 87 ± 7 |  |
| CCCCCn1c2c(c3ccc(OC)cc31)CN(C(=O)c1ccccc1)CC2 [NMP-144] | did not significantly affect voltage-dependent inactivation | -55.8 ± 2.2 |  | no effect was observed | no effect was observed | 52 ± 3 | 53 ± 14 | 0.3 |
